Measurements from patent publication US10947574B2, “Method for producing fermented carotenoid using carotenoid-producing bacteria obtained by using cobalt-containing culturing medium” (ENEOS CORPORATION, priority 2015, dated 2021).

Legend:
[1] = tested on: Paracoccus carotinifaciens mutant strain CF-358; assay: Example 5: 5 L fermenter culture with cobalt chloride, growth (OD610) and carotenoid levels (HPLC); assay type: cell-based
Description: In the following examples, carotenoids were quantified by high performance liquid chromatography (HPLC) as follows.
Two columns of Inertsil SIL-100A, 5 μm (ϕ4.6 mm×250 mm) (GL Sciences Inc., Japan) were connected together for use as a column. For elution, a mixed solution of n-hexane, tetrahydrofuran and methanol (40:20:1) serving as a mobile phase was passed through the column at a flow rate of 1.0 mL per minute at a constant temperature around room temperature. For measurement, samples were each dissolved in tetrahydrofuran and diluted 100-fold with the mobile phase, and 20 μL aliquots of the resulting dilutions were injected into the column. The column eluates were detected at a wavelength of 470 nm. As a standard for quantification, astaxanthin (SIGMA, Cat. No. A9335) was used. The astaxanthin concentration of the standard solution was determined using the following equation after measuring the absorbance (A) of the standard solution at 477 nm and the area percentage % (B) of the astaxanthin peak in HPLC analysis under the above conditions. […]
The ingredients used to prepare the seed flask medium were obtained from lots where microbial cells had been confirmed to grow well.
The resulting culture solution was then inoculated in 80 ml volumes into the individual fermenters, followed by aeration spinner culture at 28° C. under a gauge pressure of 0.01 MPa at an aeration volume of 1.5 vvm for 5 days. To maintain a pH of 7.2 during culture, 15% aqueous ammonia was automatically supplied. The number of spinner rotations was automatically varied such that the dissolved oxygen concentration in each culture solution was maintained at 2 to 4 ppm. An alcohol-based defoaming agent was automatically added to avoid bubbling.
At the completion of culture, the culture solutions were each measured for microbial cell growth by OD610 and measured for carotenoid levels by HPLC (Table 10).

[2] = tested on: Paracoccus carotinifaciens strain E-396 (FERM BP-4283); assay type: cell-based
Description: Subsequently, a medium of the following composition (glucose 30 g/L, filtered corn steep liquor 30 g/L, ammonium sulfate 1.5 g/L, potassium dihydrogen phosphate 1.5 g/L, disodium hydrogen phosphate dodecahydrate 3.8 g/L, calcium chloride dihydrate 5.0 g/L, magnesium sulfate heptahydrate 0.7 g/L, iron sulfate heptahydrate 1.0 g/L, silicon-based defoaming agent 0.2 g/L) was dispensed in 7.2 ml volumes into cotton-plugged test tubes having an inner diameter of 18 mm to prepare 13 test tubes containing a test tube medium for production. The ingredients used to prepare the test tube medium for production were obtained from lots where microbial cells had been confirmed not to grow well.
The 12 trace metals indicated in Table 1 were separately prepared in 0.8 ml volumes to have their final concentrations indicated in Table 1 and then added to the above 12 test tubes for production, respectively. The remaining one test tube was supplemented with 0.8 ml of ion exchanged water.
The resulting culture solution was then inoculated in 0.05 ml volumes into the 13 types of test tube media for production and cultured under shaking at 28° C. for 4 days at 300 spm.

[3] = cobalt added 0.042 μmol/L, total 0.045 μmol/L
[4] = cobalt added 0.42 μmol/L, total 0.42 μmol/L
[5] = cobalt added 4.2 μmol/L, total 4.2 μmol/L
[6] = cobalt added 21 μmol/L, total 21 μmol/L

Question: For `O.O.O.O.O.O.[Cl-].[Cl-].[Co+2]` [Cobalt chloride hexahydrate], which “Carotenoid: 3-Hydroxyechinenone” value [1, 3] is on record?
Answer: 12 mg/L

Question: What about the “Carotenoid: Adonirubin” value [1, 3] of the same compound?
Answer: 273 mg/L

Question: And the “Carotenoid: Adonixanthin” value [1, 3]?
Answer: 45 mg/L

Question: And the “Carotenoid: Astaxanthin” value [1, 3]?
Answer: 775 mg/L

Question: And the “Carotenoid: Asteroidenone” value [1, 3]?
Answer: 11 mg/L

Question: And the “Carotenoid: Canthaxanthin” value [1, 3]?
Answer: 90 mg/L

Question: And the “Carotenoid: Echinenone” value [1, 3]?
Answer: 37 mg/L

Question: And the “Carotenoid: β-Carotene” value [1, 3]?
Answer: 58 mg/L

Question: And the OD610 [1, 3]?
Answer: 194

Question: What about the Total carotenoid [1, 3] of the same compound?
Answer: 1302 mg/L

Question: What about the “Total carotenoid/dry microbial cells” value [1, 3] of the same compound?
Answer: 41.9 mg/g

Question: And the “Carotenoid: 3-Hydroxyechinenone” value [1, 4]?
Answer: 12 mg/L

Question: What about the “Carotenoid: Adonirubin” value [1, 4] of the same compound?
Answer: 216 mg/L

Question: And the “Carotenoid: Adonixanthin” value [1, 4]?
Answer: 73 mg/L

Question: And the “Carotenoid: Astaxanthin” value [1, 4]?
Answer: 815 mg/L

Question: And the “Carotenoid: Asteroidenone” value [1, 4]?
Answer: 15 mg/L

Question: What about the “Carotenoid: Canthaxanthin” value [1, 4] of the same compound?
Answer: 74 mg/L

Question: And the “Carotenoid: Echinenone” value [1, 4]?
Answer: 37 mg/L

Question: And the “Carotenoid: β-Carotene” value [1, 4]?
Answer: 60 mg/L

Question: And the OD610 [1, 4]?
Answer: 208

Question: And the Total carotenoid [1, 4]?
Answer: 1303 mg/L

Question: What about the “Total carotenoid/dry microbial cells” value [1, 4] of the same compound?
Answer: 39.1 mg/g

Question: What about the “Carotenoid: 3-Hydroxyechinenone” value [1, 5] of the same compound?
Answer: 5 mg/L

Question: What about the “Carotenoid: Adonirubin” value [1, 5] of the same compound?
Answer: 285 mg/L

Question: And the “Carotenoid: Adonixanthin” value [1, 5]?
Answer: 18 mg/L

Question: And the “Carotenoid: Astaxanthin” value [1, 5]?
Answer: 580 mg/L

Question: And the “Carotenoid: Asteroidenone” value [1, 5]?
Answer: 3 mg/L

Question: What about the “Carotenoid: Canthaxanthin” value [1, 5] of the same compound?
Answer: 338 mg/L

Question: What about the “Carotenoid: Echinenone” value [1, 5] of the same compound?
Answer: 61 mg/L

Question: What about the “Carotenoid: β-Carotene” value [1, 5] of the same compound?
Answer: 29 mg/L

Question: What about the OD610 [1, 5] of the same compound?
Answer: 191

Question: What about the Total carotenoid [1, 5] of the same compound?
Answer: 1319 mg/L

Question: And the “Total carotenoid/dry microbial cells” value [1, 5]?
Answer: 43.2 mg/g

Question: And the “Carotenoid: 3-Hydroxyechinenone” value [1, 6]?
Answer: 4 mg/L

Question: And the “Carotenoid: Adonirubin” value [1, 6]?
Answer: 347 mg/L

Question: And the “Carotenoid: Adonixanthin” value [1, 6]?
Answer: 7 mg/L

Question: And the “Carotenoid: Astaxanthin” value [1, 6]?
Answer: 103 mg/L

Question: And the “Carotenoid: Asteroidenone” value [1, 6]?
Answer: 1 mg/L

Question: And the “Carotenoid: Canthaxanthin” value [1, 6]?
Answer: 431 mg/L

Question: What about the “Carotenoid: Echinenone” value [1, 6] of the same compound?
Answer: 103 mg/L

Question: What about the “Carotenoid: β-Carotene” value [1, 6] of the same compound?
Answer: 27 mg/L

Question: And the OD610 [1, 6]?
Answer: 143

Question: And the Total carotenoid [1, 6]?
Answer: 1023 mg/L

Question: And the “Total carotenoid/dry microbial cells” value [1, 6]?
Answer: 44.9 mg/g

Question: And the “total carotenoid production level, in words” value ([1]; final concentration of 0.042 to 21 μmol/L)?
Answer: high

Question: And the “microbial cell growth (by OD610), in words” value [2]?
Answer: good growth

Question: What about the OD610 ([2]; each trace metal added singly at final concentration of Table 1, shaking at 28° C. for 4 days) of the same compound?
Answer: 32
